Measurements published in publication PMC9837035 (Nature Communications, 2023).
“And” between values parts separate entries of the source, which are not always exact repeats. Equal entries are not always repeated. Where two headings read alike, the source gives them in different places.

Legend:
[1] = test system: β- and γ-globin genes in HUDEP-2 cells; test: RT-qPCR of β- and γ-globin in HUDEP-2 cells; assay type: cell-based, human
Summary of the method: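 Total RNA reverse-transcribed to cDNA, then target transcripts quantified by SYBR Green real-time qPCR. Expression normalized to GAPDH as reference gene.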

[2] = test system: BGLT3-knockdown HUDEP-2 cells; test: RT-qPCR of BGLT3, β- and γ-globin in BGLT3-knockdown HUDEP-2 cells; assay type: cell-based, human; conditions: for induction of γ-globin in BGLT3-knockdown cell lines: HUDEP-2; for BGLT3 expression / β-globin expression / γ-globin expression: shctrl DMSO = 1, 3 replicates
Protocol: Total cellular RNA was prepared using the Tissue Total RNA Mini Kit (FAVORGEN), and cDNA was synthesized using ReverTra Ace Master Mix (TOYOBO). Expression of target genes was analyzed using THUNDERBIRD SYBR qPCR Mix (TOYOBO) on a CFX Connect Real Time System (Bio-Rad). The qPCR data were acquired on CFX Maestro (Bio-Rad). Primers are listed in Supplementary Table 10. GAPDH was used as a reference. Primers were purchased from INTEGRATED DNA TECHNOLOGIES or FASMAC.
Retroviral infection was used as previously described to establish cell lines stably expressing BGLT3 and transfected with the pCX4-pur vector, as well as knockdown cell lines transfected with the pSUPER vector[58]. Briefly, retroviruses were produced by transfecting PLAT-E cells with pCX4-pur-BGLT3 or pSUPER-ctrl, pSUPER-BGLT3, or pSUPER-G9a using 5 μg/mL polyethylenimine MAX (PEI MAX, Polysciences). Two days after transfection, the culture supernatant was collected and filtered through a 0.45-μm filter (Millipore) and used for infection with 8 μg/mL polybrene (Sigma). Forty-eight hours after infection, the infected cells were selected with 0.2 μg/mL puromycin (InvivoGen). The clonal puromycin-resistant cells were established via limiting dilution. The desired clones were confirmed by western blotting or qPCR.

[3] = test system: BCL11A occupancy at the β-globin locus; test: ChIP-qPCR with antibody against BCL11A in HUDEP-2 cells; assay type: cell-based, human; design: ChIP-qPCR, antibody against BCL11A: scale not given here; conditions: for occupancies of BCL11A in the BGLT3 gene region: HUDEP-2, 4 days
Protocol: A total of 0.5–1 × 10^6 cells were cross-linked with 1% formaldehyde for 10 min at room temperature and the reaction was quenched with 250 mM glycine. Cross-linked cells were then lysed with buffer 1 (15 mM Tris-HCl (pH 7.5), 60 mM KCl, 15 mM NaCl, 5 mM MgCl2, 0.1 mM EGTA, 300 mM sucrose, […], 1 mM phenylmethanesulfonyl fluoride (PMSF), 0.5% NP40) and incubated on ice for 10 min. After centrifugation, the pellet was re-suspended in buffer 2 (15 mM Tris-HCl (pH 7.5), 60 mM KCl, 15 mM NaCl, 5 mM MgCl2, 0.1 mM EGTA, 1.2 M sucrose, […], 1 mM PMSF). After centrifugation, the pellet was then re-suspended in MNase buffer (50 mM Tris-HCl (pH 7.5), 1 mM CaCl2, 4 mM MgCl2, 320 mM sucrose, 1 mM PMSF) and digested with 100 U of micrococcal nuclease (Takara) at 37 °C for 15 min. After the reaction was quenched with 20 mM EDTA, the supernatants were incubated with antibodies (anti-H3K9me2 (1:100), Abcam, ab1220; anti-H3K9ac (1:100), Active Motif, 39917; Goat anti-IgG (H + L) (1:100), Jackson Immunoresearch; anti-BCL11A (1:100), Novus Biologicals, NB600-261; anti-ZBTB7A (1:100), Thermo Fisher Scientific, eBioscience (13E9); anti-CHD3 (1:100), Novus Biologicals, NB-100-60412; anti-CHD4 (1:100), abcam, ab240640) and Protein A/G PLUS-Agarose (Santa Cruz Biotechnology) overnight at 4 °C. Beads were washed sequentially once with the following buffers: wash buffer A (50 mM Tris-HCl (pH 7.5), 75 mM NaCl, 10 mM EDTA, 0.01% NP40), wash buffer B (50 mM Tris-HCl (pH 7.5), 100 mM NaCl, 10 mM EDTA, 0.01% NP40), wash buffer C (50 mM Tris-HCl (pH 7.5), 175 mM NaCl, 10 mM EDTA, 0.01% NP40). After treatment with proteinase K in buffer 4 (20 mM Tris-HCl (pH 8.0), 10 mM EDTA, 400 mM NaCl, 0.5% SDS) at 56 °C overnight, DNA was purified using the FastGene Gel/PCR Extraction Kit (Nippon Genetics). The samples were analyzed by qPCR. Primers are listed in Supplementary Table 10. ChIP-seq experiments were performed by GENEWIZ. Tracks were visualized using the integrative genome viewer. ChIP-seq analysis were analyzed Cutadapt (V1.9.1) for QC, FastQC (V0.10.1) for QC assessment, Bowtie (V2.1.0) for mapping, strand cross-correlation (SCC) for ChIP quality assessment, MACS2 for peak calling, and R package ChIPpeakAnno for Peak annotated.

SUV420H1TV2 = biological target: T1, SUV420H1TV2 (Homo sapiens, UniProt Q4FZB7); test: Radioisotope-based methyltransferase assay (selectivity); assay type: biochemical
T1 construct: purchased Reaction Biology

SET1b = biological target: T2, SET1b (Homo sapiens, UniProt Q9UPS6); test: as above; assay type: biochemical
T2 construct: purchased Reaction Biology

SET7/9 = biological target: T3, SET7/9 (Homo sapiens, UniProt Q8WTS6); test: as above; assay type: biochemical
T3 construct: purchased Reaction Biology
T3 sequence (Q8WTS6 1-366): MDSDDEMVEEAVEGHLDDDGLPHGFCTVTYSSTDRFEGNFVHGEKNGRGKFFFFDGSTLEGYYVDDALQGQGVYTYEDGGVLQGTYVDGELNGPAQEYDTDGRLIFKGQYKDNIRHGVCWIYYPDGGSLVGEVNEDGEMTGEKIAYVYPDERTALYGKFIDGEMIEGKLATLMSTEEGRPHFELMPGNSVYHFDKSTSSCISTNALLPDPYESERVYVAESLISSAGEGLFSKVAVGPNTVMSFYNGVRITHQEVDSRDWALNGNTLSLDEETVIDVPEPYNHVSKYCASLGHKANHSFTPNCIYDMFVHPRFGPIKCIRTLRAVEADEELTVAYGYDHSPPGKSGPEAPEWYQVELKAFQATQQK

SMYD2 = biological target: T4, SMYD2 (Homo sapiens, UniProt Q9NRG4); test: as above; assay type: biochemical
T4 construct: purchased Reaction Biology

[4] = Parental cells, relative to Parental DMSO = 1, replicate values
[5] = shBGLT3#1 HUDEP-2 cells treated with hydroxyurea
[6] = shBGLT3#2 HUDEP-2 cells treated with hydroxyurea
[7] = shBGLT3#3 HUDEP-2 cells treated with hydroxyurea
[8] = shctrl HUDEP-2 cells treated with hydroxyurea
[9] = single agents or combination, relative to DMSO = 1, replicate values

T1 sequence (Q4FZB7 1-393 isoform Q4FZB7-2): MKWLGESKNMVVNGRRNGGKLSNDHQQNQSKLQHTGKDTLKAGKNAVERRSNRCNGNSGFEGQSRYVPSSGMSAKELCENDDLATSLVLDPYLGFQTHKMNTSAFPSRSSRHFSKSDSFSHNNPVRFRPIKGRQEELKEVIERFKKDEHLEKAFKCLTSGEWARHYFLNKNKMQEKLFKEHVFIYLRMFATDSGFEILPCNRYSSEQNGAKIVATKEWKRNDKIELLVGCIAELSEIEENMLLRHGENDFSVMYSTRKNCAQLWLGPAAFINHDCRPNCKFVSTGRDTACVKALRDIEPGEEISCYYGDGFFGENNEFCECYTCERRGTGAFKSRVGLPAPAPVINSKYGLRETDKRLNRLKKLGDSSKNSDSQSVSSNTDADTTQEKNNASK
T4 sequence (Q9NRG4 whole entry): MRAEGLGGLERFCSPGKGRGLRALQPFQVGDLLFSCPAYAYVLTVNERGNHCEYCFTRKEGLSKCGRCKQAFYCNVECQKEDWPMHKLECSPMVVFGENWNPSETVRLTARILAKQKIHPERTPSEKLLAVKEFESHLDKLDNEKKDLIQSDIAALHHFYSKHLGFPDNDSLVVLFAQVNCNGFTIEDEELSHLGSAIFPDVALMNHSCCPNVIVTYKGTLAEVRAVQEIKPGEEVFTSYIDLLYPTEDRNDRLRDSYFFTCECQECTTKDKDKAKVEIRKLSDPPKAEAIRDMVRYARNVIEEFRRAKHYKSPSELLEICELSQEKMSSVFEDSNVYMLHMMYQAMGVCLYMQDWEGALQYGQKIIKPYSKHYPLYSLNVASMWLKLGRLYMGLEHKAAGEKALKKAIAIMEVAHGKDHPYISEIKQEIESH

Compound: NC(=O)NO [Hydroxyurea, hydroxyurea]
- β-globin in hydroxyurea-treated HUDEP-2 cells [1, 4]: 1.499 and 1.443 and 1.4392
- γ-globin in hydroxyurea-treated HUDEP-2 cells [1, 4]: 3.312 and 3.051 and 3.256
- induction of γ-globin in BGLT3-knockdown cell lines [2]: significantly suppressed by BGLT3 knockdown
- BGLT3 expression [2, 5]: 0.1509 and 0.1371 and 0.1512
- β-globin expression [2, 5]: 1.466 and 1.446 and 1.721
- γ-globin expression [2, 5]: 0.1913 and 0.1897 and 0.2071
- BGLT3 expression [2, 6]: 0.4826 and 0.5314 and 0.5646
- β-globin expression [2, 6]: 1.233 and 1.155 and 1.519
- γ-globin expression [2, 6]: 0.3698 and 0.274 and 0.2235
- BGLT3 expression [2, 7]: 0.2947 and 0.3306 and 0.3028
- β-globin expression [2, 7]: 1.946 and 1.495 and 2.515
- γ-globin expression [2, 7]: 0.4324 and 0.5055 and 0.5513
- BGLT3 expression [2, 8]: 2.21 and 1.619 and 1.809
- β-globin expression [2, 8]: 1.158 and 0.7746 and 0.9701
- γ-globin expression [2, 8]: 2.343 and 1.97 and 1.753
- ChIP-qPCR, antibody against BCL11A ([3]; BGLT3 locus, HUDEP-2 cells treated with hydroxyurea, replicates 1a-3b): 0.8842 and 1.017 and 0.83 and 0.5175 and 0.6913 and 0.7867
- ChIP-qPCR, antibody against BCL11A ([3]; HS1, HUDEP-2 cells treated with hydroxyurea, replicates 1a-3b): 1.064 and 0.5507 and 0.5814 and 1.256 and 1.601 and 1.4807
- ChIP-qPCR, antibody against BCL11A ([3]; HS2, HUDEP-2 cells treated with hydroxyurea, replicates 1a-3b): 0.08682 and 2.447 and 1.693 and 2.52 and 0.949 and 0.09517
- ChIP-qPCR, antibody against BCL11A ([3]; HS3, HUDEP-2 cells treated with hydroxyurea, replicates 1a-3b): 1.655 and 3.8122 and 0.8818 and 0.7067 and 0.6435 and 2.151
- ChIP-qPCR, antibody against BCL11A ([3]; HS4, HUDEP-2 cells treated with hydroxyurea, replicates 1a-3b): 0.8173 and 1.536 and 0.3618 and 0.975 and 1.091 and 0.6403
- occupancies of BCL11A in the BGLT3 gene region [3]: decreased
- ChIP-qPCR, antibody against BCL11A ([3]; β-globin promoter, HUDEP-2 cells treated with hydroxyurea, replicates 1a-3b): 0.5672 and 1.0178 and 0.4614 and 1.054 and 0.8774 and 0.8041
- ChIP-qPCR, antibody against BCL11A ([3]; γ-globin promoter, HUDEP-2 cells treated with hydroxyurea, replicates 1a-3b): 0.6219 and 0.3788 and 0.8175 and 0.7872 and 0.7026 and 0.3349
- ChIP-qPCR, antibody against BCL11A ([3]; δ-globin promoter, HUDEP-2 cells treated with hydroxyurea, replicates 1a-3b): 0.5737 and 0.8872 and 0.4941 and 0.547 and 0.6567 and 0.5438

Compound: Cc1c(C(=O)NC(CCC2CC2)C(=O)Nc2ccc(C#N)cc2)[nH]c2c1C(=O)CC(C)(C)C2 (stereo not shown) [RK-701]
- γ-globin mRNA level ([1]; HUDEP-2): upregulated
- β-globin expression in HUDEP-2 cells treated with RK-701 and decitabine [1, 9]: 1.116 and 1.192 and 1.151
- γ-globin expression in HUDEP-2 cells treated with RK-701 and decitabine [1, 9]: 2.225 and 1.925 and 1.787
- IC50 (SUV420H1TV2; SUV420H1TV2, 1 μM SAM): > 100 µM
- IC50 (SUV420H1TV2; SUV420H1TV2, RK-701 in duplicate): > 100 µM
- induction of γ-globin in BGLT3-knockdown cell lines [2]: almost completely abolished
- ChIP-qPCR, antibody against BCL11A ([3]; BGLT3 locus, HUDEP-2 cells treated with RK-701, replicates): 0.6314 and 0.7848 and 0.4856 and 0.8245 and 0.6776 and 0.5891
- ChIP-qPCR, antibody against BCL11A ([3]; HS1, HUDEP-2 cells treated with RK-701, replicates): 0.3627 and 0.3768 and 0.661 and 0.2587 and 0.1661 and 0.2446
- ChIP-qPCR, antibody against BCL11A ([3]; HS2, HUDEP-2 cells treated with RK-701, replicates): 0.4595 and 0.8137 and 0.6566 and 1.335 and 1.936 and 0.6063 and 1.138 and 0.7851
- ChIP-qPCR, antibody against BCL11A ([3]; HS3, HUDEP-2 cells treated with RK-701, replicates): 0.4555 and 0.6595 and 0.2297 and 0.7103 and 0.2788 and 0.5275
- ChIP-qPCR, antibody against BCL11A ([3]; HS4, HUDEP-2 cells treated with RK-701, replicates): 0.3987 and 0.3554 and 0.6174 and 0.2389
- occupancies of BCL11A in the BGLT3 gene region [3]: significantly suppressed
- ChIP-qPCR, antibody against BCL11A ([3]; β-globin promoter, HUDEP-2 cells treated with RK-701, replicates): 0.04573 and 0.1654 and 0.1051 and 0.1187 and 0.1597 and 0.09847 and 0.07533
- ChIP-qPCR, antibody against BCL11A ([3]; γ-globin promoter, HUDEP-2 cells treated with RK-701, replicates): 0.1313 and 0.1159 and 0.3396 and 0.07171 and 0.121 and 0.0314
- ChIP-qPCR, antibody against BCL11A ([3]; δ-globin promoter, HUDEP-2 cells treated with RK-701, replicates): 0.018 and 0.05206 and 0.04359 and 0.0353 and 0.01403 and 0.04746
- IC50 (SET1b; 1 μM SAM): 48.6 µM
- IC50 (SET1b; RK-701 in duplicate): 47.6 µM and 49.6 µM
- IC50 (SET7/9; SET7/9, 1 μM SAM): > 100 µM
- IC50 (SET7/9; SET7/9, RK-701 in duplicate): > 100 µM
- IC50 (SMYD2; SMYD2, 1 μM SAM): > 100 µM
- IC50 (SMYD2; SMYD2, RK-701 in duplicate): > 100 µM

Compound: Nc1ncnc2c1ncn2[C@@H]1O[C@H](CSCC[C@H](N)C(=O)O)[C@@H](O)[C@H]1O [SAH, S-(5'-Adenosyl)-L-homocysteine, reference compound]
- IC50 (SUV420H1TV2): 126 µM
- IC50 (SET1b; 1 μM SAM): 5.3 µM
- IC50 (SET1b; RK-701 in duplicate): 5.3 µM
- IC50 (SET7/9; SET7/9, 1 μM SAM): 81.8 µM
- IC50 (SET7/9; SET7/9, RK-701 in duplicate): 81.8 µM
- IC50 (SMYD2; SMYD2, 1 μM SAM): 1.9 µM
- IC50 (SMYD2; SMYD2, RK-701 in duplicate): 1.91 µM
